# Where two headings read alike, the source gives them in different places.
# Columns and labels:
# [1] = tested on: HCT116 cells; assay: ATPlite cell viability after drug treatment, HCT116 cells in cell-line or organoid culture media; assay type: cell-based; parameters: AUC 1st / AUC 2nd / AUC 3rd / AUC Average: unit not given here
# Protocol: Advanced DMEM/F12+++ (hereinafter referred to as “Ad/DF+++”) was used to produce colorectal cancer organoids. Ad/DF+++ was refrigerated at 4° C. until use, and was used in a cold state during cell washing. Ad/DF+++ medium containing the reagents shown in Table 1 below along with Ad/DF 1× (Gibco) was prepared.
# After preparing the Ad/DF+++ medium containing the above reagents, an appropriate amount of Matrigel (Corning #356231) was added so that the ratio between Matrigel and cells suspended in the Ad/DF+++ medium was 7:3. Then, the cells were plated on low attachment well plates at an appropriate density. The density and the type and number of well plates were determined according to the characteristics of each cell type. The medium was prepared according to the composition shown in Table 2 below, and the cells were cultured (expanded) until the required level was reached while the medium was replaced every 3 to 4 days.
# If the organoids were expanded as needed for the experiment, the medium was carefully removed, taking care not to touch the Matrigel. The cells were separated from the Matrigel by pipetting about 20 times with 1 ml of cold Ad/DF+++. The cells in 1 to 4 wells per 6-well plate were collected in one 50 ml tube. If cells are collected from more than 4 wells into one tube, the Metrigel may not be washed properly. For this reason, the cells were placed in several tubes. Thereafter, Ad/DF+++ was poured to 20 to 50 ml of each tube, followed by centrifugation at 400 g for 3 minutes at 4° C. The cells were dissociated with 1 to 2 mL of TrypLE™ Express Enzyme (Gibco, 1264-013), transferred to low-attachment 24 well plates, and then treated with 10 μM of Y-27632. Next, the cells were cultured in a CO2 incubator for 5 minutes at 37° C. After pipetting about 20 times, whether the cells would be dissociated into single cells was checked by microscopic observation. If the cells were not dissociated into single cells, the culture under CO2 and pipetting processes were repeated. After the single cells were transferred into 15-ml tubes, Ad/DF+++ was filled to 10 to 15 ml of each tube, followed by centrifugation at 400 g at 4° C. for 3 minutes. After suspending the pellet in Ad/DF+++, the cells were counted and diluted with medium according to the required number of cells.
# 12 hours after seeding in Experimental Example 1-2 above, the medium was changed with the medium shown in Table 3 below, followed by culturing to produce organoids.
# (§1) Four hours after the medium change, the cells were treated with oxaliplatin, 5-FU, Irinotecan, and folinic acid. Five days after drug treatment, intracellular ATP expression was determined using the ATPlite assay kit (PerkinElmer), and the data were expressed in terms of cell viability, IC50, and AUC.
# As the standard for confirming that cells are sensitive to the drug, the response of the cells to the drug was assumed to be 100%, and the luminescence value of surviving cells after drug treatment was analyzed and compared with the quantified drug response value.
# Based on the assumption that the factor that increases the resistance of the organoids to oxaliplatin is an activator or inhibitor that changes the phenotype, the organoids prepared by excluding some or all of activators and inhibitors as shown in Table 4 below were treated with oxaliplatin.
# In order to identify the factors that reduce the resistance to oxaliplatin of the Ex2 organoid, activators or inhibitors that change the phenotype were added one by one to the Ex2 organoid composition, thus producing organoids as shown in Table 8 below. Then, it was checked whether the produced organoids had increased resistance to oxaliplatin.
# [2] = tested on: 166T colorectal cancer patient-derived organoids; assay: Cell viability after oxaliplatin, 2D and 3D culture of patient-derived organoids; assay type: cell-based; settings: for cell viability, Ex1 medium compared with control (CRC): FIGS. 26 and 27
# Protocol: as §1
# In order to evaluate the difference between 2D culture and 3D culture performed using the above medium compositions, 166T CoLvM patient-derived organoids were cultured under 2D culture conditions and 3D culture conditions.
smiles,measurement,setting,value
O=C1[O][Pt]2([NH][C@@H]3CCCC[C@H]3[NH]2)[O]C1=O [oxaliplatin],"AUC value, Ex2 compared with Ex1","[1]; HCT116, FIG. 3",significantly lower AUC values than those of Ex1
same,"AUC value, Ex3 and Ex4 compared with Ex1","[1]; HCT116, FIG. 3",lower AUC values than Ex1
same,"IC50 value, Ex2 compared with Ex1","[1]; HCT116, FIG. 4",similarly lowered in Ex2 compared to Ex1
same,cell viability versus oxaliplatin concentration,"[1]; HCT116, McCoys control, Ex1, Ex2, FIG. 5",similarly lowered in the control (McCoys) HCT116 cells and the cells cultured under the organoid culture conditions of Ex2
same,AUC 1st,"[1]; HCT116 cell line in McCoys (control), 1st",312.3
same,IC50,"[1]; HCT116 cell line in McCoys (control), 1st, read-out: IC50 (μM) 1st",24.1 µM
same,AUC 2nd,"[1]; HCT116 cell line in McCoys (control), 2nd",278.4
same,IC50,"[1]; HCT116 cell line in McCoys (control), 2nd, read-out: IC50 (μM) 2nd",10.7 µM
same,AUC 3rd,"[1]; HCT116 cell line in McCoys (control), 3rd",307.3
same,IC50,"[1]; HCT116 cell line in McCoys (control), 3rd, read-out: IC50 (μM) 3rd",28.8 µM
same,AUC Average,"[1]; HCT116 cell line in McCoys (control), average",299.3
same,IC50,"[1]; HCT116 cell line in McCoys (control), average, read-out: IC50 (μM) Average",21.2 µM
same,AUC 1st,"[1]; HCT116 in Ex1 (all inhibitors and activators), 1st",379.7
same,IC50,"[1]; HCT116 in Ex1 (all inhibitors and activators), 1st, read-out: IC50 (μM) 1st",133 µM
same,AUC 2nd,"[1]; HCT116 in Ex1, 2nd",379.9
same,IC50,"[1]; HCT116 in Ex1, 2nd, read-out: IC50 (μM) 2nd",98 µM
same,AUC 3rd,"[1]; HCT116 in Ex1, 3rd",390.0
same,IC50,"[1]; HCT116 in Ex1, 3rd, read-out: IC50 (μM) 3rd",167 µM
same,AUC Average,"[1]; HCT116 in Ex1, average",383.2
same,IC50,"[1]; HCT116 in Ex1, average, read-out: IC50 (μM) Average",133 µM
same,AUC 1st,"[1]; HCT116 in Ex2 (no inhibitors, no activators), 1st",319.8
same,IC50,"[1]; HCT116 in Ex2 (no inhibitors, no activators), 1st, read-out: IC50 (μM) 1st",27.8 µM
same,AUC 1st,"[1]; HCT116 in Ex2-1 (Ex2 + A83-01 500 nM), 1st",328.0
same,IC50,"[1]; HCT116 in Ex2-1 (Ex2 + A83-01 500 nM), 1st, read-out: IC50 (μM) 1st",46 µM
same,AUC 2nd,"[1]; HCT116 in Ex2-1, 2nd",341.6
same,IC50,"[1]; HCT116 in Ex2-1, 2nd, read-out: IC50 (μM) 2nd",52.2 µM
same,AUC 3rd,"[1]; HCT116 in Ex2-1, 3rd",342.0
same,IC50,"[1]; HCT116 in Ex2-1, 3rd, read-out: IC50 (μM) 3rd",81.8 µM
same,AUC Average,"[1]; HCT116 in Ex2-1, average",337.2
same,IC50,"[1]; HCT116 in Ex2-1, average, read-out: IC50 (μM) Average",60 µM
same,AUC 1st,"[1]; HCT116 in Ex2-2 (Ex2 + Y-27632 10 μM), 1st",284.9
same,IC50,"[1]; HCT116 in Ex2-2 (Ex2 + Y-27632 10 μM), 1st, read-out: IC50 (μM) 1st",13 µM
same,AUC 2nd,"[1]; HCT116 in Ex2-2, 2nd",320.5
same,IC50,"[1]; HCT116 in Ex2-2, 2nd, read-out: IC50 (μM) 2nd",38.4 µM
same,AUC 3rd,"[1]; HCT116 in Ex2-2, 3rd",301.0
same,IC50,"[1]; HCT116 in Ex2-2, 3rd, read-out: IC50 (μM) 3rd",16 µM
same,AUC Average,"[1]; HCT116 in Ex2-2, average",302.1
same,IC50,"[1]; HCT116 in Ex2-2, average, read-out: IC50 (μM) Average",22.5 µM
same,AUC 1st,"[1]; HCT116 in Ex2-3 (Ex2 + SB 202190 10 μM), 1st",306.6
same,IC50,"[1]; HCT116 in Ex2-3 (Ex2 + SB 202190 10 μM), 1st, read-out: IC50 (μM) 1st",30.2 µM
same,AUC 2nd,"[1]; HCT116 in Ex2-3, 2nd",343.3
same,IC50,"[1]; HCT116 in Ex2-3, 2nd, read-out: IC50 (μM) 2nd",63.4 µM
same,AUC 3rd,"[1]; HCT116 in Ex2-3, 3rd",287.0
same,IC50,"[1]; HCT116 in Ex2-3, 3rd, read-out: IC50 (μM) 3rd",18.2 µM
same,AUC Average,"[1]; HCT116 in Ex2-3, average",312.3
same,IC50,"[1]; HCT116 in Ex2-3, average, read-out: IC50 (μM) Average",37.3 µM
same,AUC 1st,"[1]; HCT116 in Ex2-4 (Ex2 + Wnt3a), 1st",258.2
same,IC50,"[1]; HCT116 in Ex2-4 (Ex2 + Wnt3a), 1st, read-out: IC50 (μM) 1st",5.9 µM
same,AUC 2nd,"[1]; HCT116 in Ex2-4, 2nd",304.7
same,IC50,"[1]; HCT116 in Ex2-4, 2nd, read-out: IC50 (μM) 2nd",38.8 µM
same,AUC 3rd,"[1]; HCT116 in Ex2-4, 3rd",315.9
same,IC50,"[1]; HCT116 in Ex2-4, 3rd, read-out: IC50 (μM) 3rd",26.9 µM
same,AUC Average,"[1]; HCT116 in Ex2-4, average",292.9
same,IC50,"[1]; HCT116 in Ex2-4, average, read-out: IC50 (μM) Average",23.8 µM
same,AUC 1st,"[1]; HCT116 in Ex2-5 (Ex2 + R-spondin 1 1 μg/ml), 1st",317.5
same,IC50,"[1]; HCT116 in Ex2-5 (Ex2 + R-spondin 1 1 μg/ml), 1st, read-out: IC50 (μM) 1st",34 µM
same,AUC 2nd,"[1]; HCT116 in Ex2-5, 2nd",322.7
same,IC50,"[1]; HCT116 in Ex2-5, 2nd, read-out: IC50 (μM) 2nd",43 µM
same,AUC 3rd,"[1]; HCT116 in Ex2-5, 3rd",351.6
same,IC50,"[1]; HCT116 in Ex2-5, 3rd, read-out: IC50 (μM) 3rd",103 µM
same,AUC Average,"[1]; HCT116 in Ex2-5, average",330.6
same,IC50,"[1]; HCT116 in Ex2-5, average, read-out: IC50 (μM) Average",60 µM
same,AUC 1st,"[1]; HCT116 in Ex2-6 (Ex2 + Noggin 100 ng/ml), 1st",264.3
same,IC50,"[1]; HCT116 in Ex2-6 (Ex2 + Noggin 100 ng/ml), 1st, read-out: IC50 (μM) 1st",7.8 µM
same,AUC 2nd,"[1]; HCT116 in Ex2-6, 2nd",309.4
same,IC50,"[1]; HCT116 in Ex2-6, 2nd, read-out: IC50 (μM) 2nd",41.4 µM
same,AUC 3rd,"[1]; HCT116 in Ex2-6, 3rd",292.6
same,IC50,"[1]; HCT116 in Ex2-6, 3rd, read-out: IC50 (μM) 3rd",22.1 µM
same,AUC Average,"[1]; HCT116 in Ex2-6, average",288.8
same,IC50,"[1]; HCT116 in Ex2-6, average, read-out: IC50 (μM) Average",23.8 µM
same,AUC 2nd,"[1]; HCT116 in Ex2, 2nd",324.8
same,IC50,"[1]; HCT116 in Ex2, 2nd, read-out: IC50 (μM) 2nd",46.1 µM
same,AUC 3rd,"[1]; HCT116 in Ex2, 3rd",331.7
same,IC50,"[1]; HCT116 in Ex2, 3rd, read-out: IC50 (μM) 3rd",40.5 µM
same,AUC Average,"[1]; HCT116 in Ex2, average",325.4
same,IC50,"[1]; HCT116 in Ex2, average, read-out: IC50 (μM) Average",38.1 µM
same,"drug response, colorectal cancer cell line compared with cells under Ex1 organoid culture conditions","[1]; HCT-116, FIG. 2",increased resistance under the organoid culture conditions
same,"drug responsiveness, colorectal cancer cell line compared with organoids cultured in Ex1 and Ex2","[1]; HCT-116, FIG. 25",oxaliplatin resistance decreased in Ex2
same,"cell viability, Ex2 medium compared with control",[2]; 2D and 3D culture,cell viabilities similar to those of the control group
same,"cell viability, Ex1 medium compared with control (CRC)",[2]; 2D culture,cell viability similar to that of the control (CRC) cell line
same,"cell viability, Ex1 medium compared with control (CRC)",[2]; 3D culture,higher cell viability than that of the control (CRC) cell line
